Measurements: PubChem BioAssay AID791 (The Scripps Research Institute Molecular Screening Center, 2007)
Calls of active or inactive are those of the source.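 Rule for the calls: active = IC50 at or below 10 µM; inactive = IC50 above 10 µM.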

What follows are compounds tested against Rho-associated protein kinase 2 (Homo sapiens) (UniProt O75116) (assay: blockers of Rho kinase 2 activity – biochemical, Kinase-Glo luminescence, S6 peptide, 384-well, dose response (AID 791)). Details: recombinant ROCK2, S6 peptide.
Chain of Rho-associated protein kinase 2 (Homo sapiens) (O75116 whole entry, looked up): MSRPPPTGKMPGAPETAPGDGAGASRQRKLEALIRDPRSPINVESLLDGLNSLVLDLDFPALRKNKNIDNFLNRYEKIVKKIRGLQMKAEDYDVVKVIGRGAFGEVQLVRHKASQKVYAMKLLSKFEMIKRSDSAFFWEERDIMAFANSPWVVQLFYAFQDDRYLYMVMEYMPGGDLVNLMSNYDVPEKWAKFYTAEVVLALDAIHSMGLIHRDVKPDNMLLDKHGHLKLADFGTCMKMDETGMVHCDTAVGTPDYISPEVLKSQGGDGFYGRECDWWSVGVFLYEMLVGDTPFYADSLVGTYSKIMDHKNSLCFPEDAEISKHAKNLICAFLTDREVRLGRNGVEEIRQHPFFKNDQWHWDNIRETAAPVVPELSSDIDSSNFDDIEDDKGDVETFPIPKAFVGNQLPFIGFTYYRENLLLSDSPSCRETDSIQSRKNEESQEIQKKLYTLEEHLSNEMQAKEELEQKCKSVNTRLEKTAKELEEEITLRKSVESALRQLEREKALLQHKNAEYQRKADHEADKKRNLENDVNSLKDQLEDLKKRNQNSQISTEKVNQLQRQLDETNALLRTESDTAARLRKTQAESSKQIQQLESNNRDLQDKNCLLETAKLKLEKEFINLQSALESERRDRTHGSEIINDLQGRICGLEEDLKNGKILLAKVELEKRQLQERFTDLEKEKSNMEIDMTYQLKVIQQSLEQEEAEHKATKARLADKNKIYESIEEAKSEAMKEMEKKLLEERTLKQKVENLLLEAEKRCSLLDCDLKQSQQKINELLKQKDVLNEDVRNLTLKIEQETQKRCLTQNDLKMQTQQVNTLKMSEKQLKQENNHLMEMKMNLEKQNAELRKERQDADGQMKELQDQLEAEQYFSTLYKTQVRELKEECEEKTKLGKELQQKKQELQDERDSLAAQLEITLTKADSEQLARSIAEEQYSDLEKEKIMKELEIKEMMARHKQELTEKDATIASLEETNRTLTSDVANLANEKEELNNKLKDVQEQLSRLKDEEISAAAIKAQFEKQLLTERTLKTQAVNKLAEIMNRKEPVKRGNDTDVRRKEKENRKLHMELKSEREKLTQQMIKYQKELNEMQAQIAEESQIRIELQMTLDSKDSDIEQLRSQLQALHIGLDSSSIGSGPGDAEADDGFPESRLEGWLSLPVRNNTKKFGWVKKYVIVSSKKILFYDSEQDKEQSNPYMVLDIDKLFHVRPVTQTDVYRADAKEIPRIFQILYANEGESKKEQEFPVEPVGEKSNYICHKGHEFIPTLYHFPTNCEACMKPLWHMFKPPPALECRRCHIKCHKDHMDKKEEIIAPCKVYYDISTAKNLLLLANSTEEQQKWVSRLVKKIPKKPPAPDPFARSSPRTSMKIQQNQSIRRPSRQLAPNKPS

Compound | IC50
N[C@H](C(=O)N1CCC(Nc2ccc3[nH]ncc3c2)CC1)c1ccccc1 | 835 nM
N[C@H](Cc1ccccc1)C(=O)N1CCN(c2ccc3[nH]ncc3c2)CC1 | 379 nM
O=C([C@H](O)c1ccccc1)N1CCC(Nc2ccc3[nH]ncc3c2)CC1 | 774 nM
NC(C(=O)N1CCN(c2ccc3[nH]ncc3c2)CC1)c1ccc(Br)cc1 (stereo not drawn) | 8.97 nM
NC(C(=O)N1CCN(c2ccc3[nH]ncc3c2)CC1)c1cccc(Cl)c1 (stereo not drawn) | 756 nM
O=C(C(O)c1ccc(Cl)cc1)N1CCN(c2ccc3[nH]ncc3c2)CC1 (stereo not drawn) | 186 nM
C[C@H](N)C(=O)N1CCC(Nc2ccc3[nH]ncc3c2)CC1 | 5740 nM
C[C@H](O)C(=O)N1CCC(Nc2ccc3[nH]ncc3c2)CC1 | > 10000 nM (inactive)
N[C@@H](C(=O)N1CCN(c2ccc3[nH]ncc3c2)CC1)c1ccccc1 | 1400 nM
O=C([C@H](O)c1cccc(Cl)c1)N1CCC(Nc2ccc3[nH]ncc3c2)CC1 | 350 nM
NC(C(=O)N1CCC(Nc2ccc3[nH]ncc3c2)CC1)c1ccc(Br)cc1 (stereo not drawn) | 1.26 nM
O=C([C@H](O)c1ccccc1)N1CCN(c2ccc3[nH]ncc3c2)CC1 | 855 nM
O=C(C(O)c1ccc(Br)cc1)N1CCN(c2ccc3[nH]ncc3c2)CC1 (stereo not drawn) | 7.86 nM
O=C([C@H](O)c1ccccc1Cl)N1CCN(c2ccc3[nH]ncc3c2)CC1 | 1200 nM

More lines, now with the values ahead:

IC50 | Compound
1050 nM | O=C([C@H](O)c1cccc(Cl)c1)N1CCN(c2ccc3[nH]ncc3c2)CC1
188 nM | NC(C(=O)N1CCN(c2ccc3[nH]ncc3c2)CC1)c1ccc(Cl)cc1 (stereo not drawn)
8.87 nM | O=C(C(O)c1ccc(Br)cc1)N1CCC(Nc2ccc3[nH]ncc3c2)CC1 (stereo not drawn)
> 10600 nM (inactive) | C[C@@H](N)C(=O)N1CCN(c2ccc3[nH]ncc3c2)CC1
148 nM | NC(C(=O)N1CCC(Nc2ccc3[nH]ncc3c2)CC1)c1cccc(Cl)c1 (stereo not drawn)
468 nM | N[C@@H](Cc1ccccc1)C(=O)N1CCC(Nc2ccc3[nH]ncc3c2)CC1
3910 nM | CC(C)[C@@H](O)C(=O)N1CCN(c2ccc3[nH]ncc3c2)CC1
1700 nM | O=C([C@@H](O)c1ccccc1Cl)N1CCC(Nc2ccc3[nH]ncc3c2)CC1
5320 nM | O=C([C@@H]1Cc2ccccc2CN1)N1CCN(c2ccc3[nH]ncc3c2)CC1
